Reference: patent US10442848B2, “Oxyntomodulin derivatives and pharmaceutical composition for treating obesity comprising the same” (HANMI SCIENCE CO., LTD, priority 2011, dated 2019)

Tests used:
[1] = taken for 1 year; cited from earlier work
human glucagon receptor = biological target: T1, human glucagon receptor (Homo sapiens, UniProt P47871); experiment: cAMP response in CHO cell line expressing human glucagon receptor; format: cell-based; conditions: read-out: EC50 CHO/GCGR
T1 construct: expressed in transfected cells; host or cells: CHO DG44
T1 sequence (P47871 26-477): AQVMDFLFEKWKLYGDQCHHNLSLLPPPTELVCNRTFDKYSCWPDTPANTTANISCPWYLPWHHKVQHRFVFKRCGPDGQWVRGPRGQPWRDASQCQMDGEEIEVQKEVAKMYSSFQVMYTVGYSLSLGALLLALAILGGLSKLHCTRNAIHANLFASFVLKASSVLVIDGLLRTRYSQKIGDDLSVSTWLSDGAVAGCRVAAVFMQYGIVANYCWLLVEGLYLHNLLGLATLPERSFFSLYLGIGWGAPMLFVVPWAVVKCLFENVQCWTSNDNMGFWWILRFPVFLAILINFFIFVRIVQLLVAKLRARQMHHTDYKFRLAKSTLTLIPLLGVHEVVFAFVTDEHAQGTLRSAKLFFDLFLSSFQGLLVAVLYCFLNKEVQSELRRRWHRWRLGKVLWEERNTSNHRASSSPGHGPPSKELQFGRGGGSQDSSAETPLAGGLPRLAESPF
Protocol: The PCR product was cloned into the known animal cell expression vector x0GC/dhfr to prepare a recombinant vector x0GC/GCGR.
CHO DG44 cell line cultured in DMEM/F12 (10% FBS) medium was transfected with the recombinant vector x0GC/GCGR using LIPOFECTAMINE®, and cultured in a selection medium containing 1 mg/mL G418 and 10 nM methotraxate.
The cultured cells were washed with KRB buffer and suspended in 40 ml of KRB buffer containing 1 mM IBMX, and left at room temperature for 5 minutes. […] Then, 20 mL of cell lysis buffer was added for cell lysis, and the cell lysates were applied to a cAMP assay kit (Molecular Device, USA) to measure cAMP concentrations. EC50 values were calculated therefrom, and compared to each other.

Compound	weight loss [1] [kg]	EC50 (human glucagon receptor) [nM]
CCCCCCCCCCC[C@@H](C[C@@H]1OC(=O)[C@H]1CCCCCC)OC(=O)[C@H](CC(C)C)NC=O [orlistat]	4	–
CSCC[C@H](NC(=O)[C@H](CC(C)C)NC(=O)[C@H](Cc1c[nH]c2ccccc12)NC(=O)[C@H](CCC(N)=O)NC(=O)[C@@H](NC(=O)[C@H](Cc1ccccc1)NC(=O)[C@H](CCC(=O)O)NC(=O)[C@@H]1CCCCNC(=O)CC[C@H](NC(=O)[C@H](CC(=O)O)NC(=O)[C@H](CC(C)C)NC(=O)[C@H](Cc2ccc(O)cc2)NC(=O)[C@H](CCCCN)NC(=O)[C@H](CO)NC(=O)[C@H](Cc2ccc(O)cc2)NC(=O)[C@H](CC(=O)O)NC(=O)[C@H](CO)NC(=O)[C@@H](NC(=O)[C@H](Cc2ccccc2)NC(=O)[C@@H](NC(=O)CNC(=O)[C@H](CCC(N)=O)NC(=O)C(C)(C)NC(=O)[C@@H](N)Cc2c[nH]cn2)[C@@H](C)O)[C@@H](C)O)C(=O)N[C@@H](CCCCN)C(=O)N[C@@H](CCCNC(=N)N)C(=O)N[C@@H](C)C(=O)N1)C(C)C)C(=O)N[C@@H](CC(N)=O)C(=O)N[C@H](C(=O)N[C@@H](CS)C(=O)O)[C@@H](C)O [SEQ ID NO. 25]	–	1.3
CSCC[C@H](NC(=O)[C@H](CC(C)C)NC(=O)[C@H](Cc1c[nH]c2ccccc12)NC(=O)[C@H](CCC(N)=O)NC(=O)[C@@H](NC(=O)[C@H](Cc1ccccc1)NC(=O)[C@H](CCC(=O)O)NC(=O)[C@H](CCCCN)NC(=O)[C@H](C)NC(=O)[C@H](CCCNC(=N)N)NC(=O)[C@H](CCCCN)NC(=O)[C@H](CCC(=O)O)NC(=O)[C@H](CC(=O)O)NC(=O)[C@H](CC(C)C)NC(=O)[C@H](Cc1ccc(O)cc1)NC(=O)[C@H](CCCCN)NC(=O)[C@H](CO)NC(=O)[C@H](Cc1ccc(O)cc1)NC(=O)[C@H](CC(=O)O)NC(=O)[C@H](CO)NC(=O)[C@@H](NC(=O)[C@H](Cc1ccccc1)NC(=O)[C@@H](NC(=O)CNC(=O)[C@H](CCC(N)=O)NC(=O)C(C)(C)NC(=O)[C@@H](N)Cc1c[nH]cn1)[C@@H](C)O)[C@@H](C)O)C(C)C)C(=O)N[C@@H](CC(N)=O)C(=O)N[C@H](C(=O)N[C@@H](CS)C(=O)O)[C@@H](C)O [SEQ ID NO. 24]	–	6.95
